Results: US6521623B1, “N,N'-disubstituted benzimidazolone derivatives with affinity at the serotonin and dopamine receptors” (Boehringer Ingelheim Pharma KG, priority 2000, dated 2003)

How the values were obtained:
[1] = target: T1, 5-HT2A (Rattus norvegicus, UniProt P14842); test: 5-HT2A Radioligand Receptor Binding Assay ([3H]-Ketanserin, cerebral frontal cortex membranes); settings: 0.5 nM [3H]-Ketanserin
T1 construct: Cerebral frontal cortex was homogenized in 10 volumes of ice cold 0.32 M sucrose; from tissue; host or cells: rat cerebral frontal cortex membranes
T1 sequence (P14842 whole entry): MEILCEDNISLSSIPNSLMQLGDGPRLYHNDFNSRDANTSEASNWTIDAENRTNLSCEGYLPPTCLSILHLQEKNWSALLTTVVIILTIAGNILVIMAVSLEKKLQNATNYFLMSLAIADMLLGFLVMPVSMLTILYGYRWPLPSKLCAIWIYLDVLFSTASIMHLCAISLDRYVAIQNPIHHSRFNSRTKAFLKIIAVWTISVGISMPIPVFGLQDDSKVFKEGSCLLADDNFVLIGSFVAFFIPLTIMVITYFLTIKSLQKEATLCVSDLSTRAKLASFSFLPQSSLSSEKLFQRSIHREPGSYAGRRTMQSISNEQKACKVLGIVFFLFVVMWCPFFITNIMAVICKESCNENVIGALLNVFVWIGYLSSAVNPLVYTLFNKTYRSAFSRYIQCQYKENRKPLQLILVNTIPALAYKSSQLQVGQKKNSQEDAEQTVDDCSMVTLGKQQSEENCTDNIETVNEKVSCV
Description: 5-HT2A Radioligand Receptor Binding Assay
Rats (male Sprague-Dawley, 200-250 g) were used. Cerebral frontal cortex was homogenized in 10 volumes of ice cold 0.32 M sucrose in 5 mM Tris-HCl ([…]) buffer. After centrifugation of the homogenate (1,000×g for 10 minutes) the supernatant was then recentrifuged at 48,000×g for 15 minutes. The resulting pellet was gently homogenized in an equal volume of 50 mM Tris-HCl buffer (pH 7.4) and incubated at 37° C. for 10 minutes. Membranes were then collected by centrifugation as above described and finally resuspended in 10 volumes of 50 mM Tris-HCl buffer (pH 7.4).
For displacement experiments membranes (980 μl) were diluted in 50 mM Tris-HCl buffer (pH 7.4) to a final concentration of 1:100 (w/v); the tissue suspension was then incubated at 37° C. for 10 minutes in a final volume of 1 ml in the presence of 0.5 nM [^3H]-Ketanserin. Non-specific binding was determined by incubating similar samples with unlabelled methysergide (100 μM). After incubation, samples prepared in a 24 wells cell culture cluster (Costar) were rapidly filtered by Inotech Cell Harvester (IH 201 filters). The filters were washed three times with 2 ml ice-cold Tris-HCl buffer and placed in polyethylene vials, then 4 ml of Filter Count scintillation cocktail (Packard) were added. The radioactivity present was counted by liquid scintillation spectrometry.
The affinity values (IC50) for the compounds were obtained by a nonlinear least squares regression analysis on the basis of a one binding site model.

[2] = target: 5-HT2A (Mus musculus, UniProt P35363); test: 5-HT2 Functional Assay (PI Turnover) in cerebral cortex miniprisms; assay type: biochemical; settings: 10 μM compound, inhibition of PI turnover accumulation induced by 100 μM 5-HT
5-HT2A (Mus musculus, UniProt P35363), sequence (P35363 whole entry, looked up): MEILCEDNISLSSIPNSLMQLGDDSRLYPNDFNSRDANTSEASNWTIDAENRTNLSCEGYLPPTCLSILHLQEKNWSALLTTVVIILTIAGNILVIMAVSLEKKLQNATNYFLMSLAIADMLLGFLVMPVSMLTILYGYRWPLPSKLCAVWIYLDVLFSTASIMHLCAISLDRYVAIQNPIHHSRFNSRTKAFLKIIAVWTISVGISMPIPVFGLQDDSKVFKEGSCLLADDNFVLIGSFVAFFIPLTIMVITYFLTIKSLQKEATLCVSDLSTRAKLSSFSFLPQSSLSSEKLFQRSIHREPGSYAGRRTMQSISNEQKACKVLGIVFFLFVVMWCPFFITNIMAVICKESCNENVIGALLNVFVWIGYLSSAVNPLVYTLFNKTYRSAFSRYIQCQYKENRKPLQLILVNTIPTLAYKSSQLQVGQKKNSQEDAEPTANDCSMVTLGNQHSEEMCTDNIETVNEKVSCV
Description: 5-H T2 Functional Assay (PI Turnover)
Cross-chopped miniprisms (350×350 μm) were prepared from mouse whole cerebral cortices and incubated for 60 minutes at 37° C. in Krebs-Henseleit buffer containing 2 g/l glucose.
Cerebral cortex miniprisms were distributed in vials and incubated for 30 minutes with approximately 170 nM [^3H]-myoinositol (10-20 Ci/mmol) and […] lithium chloride. Samples were divided in different groups in triplicate: control, 100 μM 5-HT, 10 and 30 μM flibanserin+100 μM 5-HT, as standards, and 10 μM of the different compound under investigation+100 μM 5-HT. When 5-HT was added the incubation continued for 45 minutes. Compounds under investigation and flibanserin were added 10 minutes before dispensing 5-HT. Incubation was terminated by the addition of 940 μl chloroform-methanol (1:2 v/v). Further aliquots of chloroform (310 μl) and water (310 μl) were added and labeled inositol phosphates (1 Ps) were extracted from the aqueous phase by ion exchange chromatography using Dowex resin in the formate form. After addition of 10 ml of PicoFluor 40 scintillation cocktail (Packard), the radioactivity present in an aliquot (400 μl) of the aqueous extract was counted by liquid scintillation spectrometry.

[3] = target: T2, 5-HT1A (Homo sapiens, UniProt P08908); test: 5HT1A Radioligand Receptor Binding Assay ([3H]-8-OH-DPAT, CHO cell membranes); design: expressed in transfected cells; host or cells: CHO cells; settings: [3H]-8-OH-DPAT; CHO membranes, human 5-HT1A; read-out: 5-HT1A Receptor Binding IC50
T2 sequence (P08908 1-422): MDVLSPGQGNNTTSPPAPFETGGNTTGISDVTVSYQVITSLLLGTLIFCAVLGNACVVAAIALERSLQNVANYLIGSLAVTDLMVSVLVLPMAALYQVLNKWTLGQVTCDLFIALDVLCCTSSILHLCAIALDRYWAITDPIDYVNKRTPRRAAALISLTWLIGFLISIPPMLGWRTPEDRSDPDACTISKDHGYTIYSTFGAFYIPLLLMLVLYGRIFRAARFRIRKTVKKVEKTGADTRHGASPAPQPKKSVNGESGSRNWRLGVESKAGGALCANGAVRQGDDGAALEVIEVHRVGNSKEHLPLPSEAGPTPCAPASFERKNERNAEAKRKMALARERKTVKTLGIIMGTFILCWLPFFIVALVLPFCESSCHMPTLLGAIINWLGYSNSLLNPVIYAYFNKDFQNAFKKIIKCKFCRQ
Procedure, shortened: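 CHO-cell membranes expressing human 5-HT1A incubated with [3H]-8-OH-DPAT (0.6-0.7 nM) for 60 minutes at 27° C, filtered and scintillation counted; non-specific binding defined with 10^−5 M 5-HT. Compounds tested singly at 10^−7 M as % of control specific binding; IC50 from one-site nonlinear regression.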

[4] = target: T2, 5-HT1A; test: 5-HT1 Functional Assay (cAMP) in CHO/5-HT1A cells; assay type: cell-based; design: expressed in transfected cells; host or cells: CHO/5-HT1A cells
Description: 5-HT1 Functional Assay (cAMP)
CHO/5-HT1A cells were random seeded at a density of about 200,000/well in 24 well plates the day prior to the experiment. On the day of the experiment, cells were pretreated for 15 minutes at 37° C. with 500 μM isobutylmethylxantine (IBMX) dissolved in culture medium without serum. Wells were then divided in different groups in duplicate as follows: control, 10 μM FSK, 10 μM FSK+1 μM 5-HT as positive standard and 10 μM FSK+10 μM of the different compound under evaluation. Sample solutions were added and incubated for additional 15 minutes at 37° C. After incubation, the medium was aspirated and the reaction stopped by adding 200 μl of lysis buffer. Plates were shaken for 5 minutes, then the lysate was removed and samples were stored at 4° C. until the day of the assay. For the cAMP evaluation, samples were properly diluted and the cAMP content was measured by an enzyme immunoassay system.

| SMILES | IC50 [1] [nM] | 5-HT2A PI Turnover % inhibition [2] [%] | IC50 [3] [nM] | inhibition at 10 µM [4] [%] |
| --- | --- | --- | --- | --- |
| Cc1cccc(N2CCN(C/C=C\Cn3c(=O)n(CCNS(C)(=O)=O)c4ccccc43)CC2)c1 [Compound 514] | 74 | 41 | 7.9 | 67 |
| CS(=O)(=O)NCCn1c(=O)n(C/C=C/CN2CCN(c3cccc(Cl)c3)CC2)c2ccccc21 [Compound 521] | 30 | 48 | 0.61 | 67 |
